From article PMC3085482, “Phosphorylation-Dependent Differential Regulation of Plant Growth, Cell Death, and Innate Immunity by the Regulatory Receptor-Like Kinase BAK1” (PLoS Genetics, 2011) come the findings set out here.

For series [1], the target named is T1, EFR CD (MBP-EFR) (Arabidopsis thaliana, UniProt C0LGT6).
T1 sequence (C0LGT6 682-1031): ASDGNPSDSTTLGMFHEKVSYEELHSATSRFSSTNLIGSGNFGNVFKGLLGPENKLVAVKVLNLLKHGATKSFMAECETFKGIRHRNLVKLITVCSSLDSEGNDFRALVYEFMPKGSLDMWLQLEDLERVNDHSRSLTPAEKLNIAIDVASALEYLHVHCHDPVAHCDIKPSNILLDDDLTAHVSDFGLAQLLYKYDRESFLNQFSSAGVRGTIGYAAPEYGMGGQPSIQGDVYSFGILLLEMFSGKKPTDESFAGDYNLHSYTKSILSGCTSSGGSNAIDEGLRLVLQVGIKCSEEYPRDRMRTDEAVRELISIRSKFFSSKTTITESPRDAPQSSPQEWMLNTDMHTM
Description: in vitro kinase assay with […]-γ-ATP, SDS-PAGE autoradiography. To be noted: 1 µM unlabelled ATP plus [32P]-γ-ATP; labelled compound; myelin basic protein; 10 mM MgCl2, 10 mM MnCl2, pH 7.5, 30 °C. The class given is biochemical.

In series [2] the target is T2, BRI1 CD (MBP-BRI1) (Arabidopsis thaliana, UniProt O22476).
T2 sequence (O22476 814-1196): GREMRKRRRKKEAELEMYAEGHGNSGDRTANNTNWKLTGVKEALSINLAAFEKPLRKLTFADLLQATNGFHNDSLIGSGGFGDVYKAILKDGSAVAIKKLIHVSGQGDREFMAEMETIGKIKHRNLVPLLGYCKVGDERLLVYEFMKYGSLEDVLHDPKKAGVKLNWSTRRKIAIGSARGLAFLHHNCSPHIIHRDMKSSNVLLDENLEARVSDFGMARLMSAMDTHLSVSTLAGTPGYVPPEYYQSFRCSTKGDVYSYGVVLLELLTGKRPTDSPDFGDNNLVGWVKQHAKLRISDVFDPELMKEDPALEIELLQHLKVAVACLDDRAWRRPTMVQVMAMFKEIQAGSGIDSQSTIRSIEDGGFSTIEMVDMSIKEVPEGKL
Described as above. The class given is biochemical. Conditions: 1 µM unlabelled ATP plus [32P]-γ-ATP; labelled compound; myelin basic protein; 10 mM MgCl2, 10 mM MnCl2, pH 7.5, 30 °C.

Substrate in series [3]: Nc1ncnc2c1ncn2[C@@H]1O[C@H](COP(=O)(O)OP(=O)(O)OP(=O)(O)O)[C@@H](O)[C@H]1O
Description: autophosphorylation over ATP range, PVDF blot autoradiography (PhosphorImager). The class given is biochemical, Arabidopsis thaliana.

Where a chain is given by its changes, count along the chain named. Numbers in names are those of the source.

Regarding `Nc1ncnc2c1ncn2[C@@H]1O[C@H](COP(=O)(O)OP(=O)(O)OP(=O)(O)O)[C@@H](O)[C@H]1O` [ATP], the “in vitro kinase assay with [32P]-γ-ATP, SDS-PAGE autoradiography” value in series [1] was “EFR CD possessed only minor auto-phosphorylation capacity”; in series [2] it was “BRI1 CD had a very strong auto- and trans-phosphorylation capacity”.

B1: BAK1 CD (GST-BAK1) (Arabidopsis thaliana) (protein)
chain: DHFFDVPAEEDPEVHLGQLKRFSLRELQVASDNFSNKNILGRGGFGKVYKGRLADGTLVAVKRLKEERTQGGELQFQTEVEMISMAVHRNLLRLRGFCMTPTERLLVYPYMANGSVASCLRERPESQPPLDWPKRQRIALGSARGLAYLHDHCDPKIIHRDVKAANILLDEEFEAVVGDFGLAKLMDYKDTHVTTAVRGTIGHIAPEYLSTGKSSEKTDVFGYGVMLLELITGQRAFDLARLANDDDVMLLDWVKGLLKEKKLEALVDVDLQGNYKDEEVEQLIQVALLCTQSSPMERPKMSEVVRMLEGDGLAERWEEWQKEEMFRQDFNYPTHHPAVSGWIIGDSTSQIENEYPSGPR
notes: cytoplasmic domain residues 256-615, N-terminal GST tag kept (pGEX-4T1), E. coli BL21, glutathione purified
As for B1, in series [3] (autophosphorylation of GST-BAK1 CD), the Km entry is given as “∼7 µM”.

B2: BAK1 CD (GST-BAK1) (Arabidopsis thaliana; C408Y) (protein)
chain: B1 chain with C153Y
notes: as for B1
Take B2: in series [3] (autophosphorylation of GST-BAK1 CD (BAK1-5 protein)), the Km result is “∼25 µM”.
